pIC50: −log10 of the molar value.
Biological target: Neuraminidase (Influenza A virus, UniProt B4URF0)
Parameters: species or system unidentified adenovirus

Neuraminidase, sequence (B4URF0 whole entry): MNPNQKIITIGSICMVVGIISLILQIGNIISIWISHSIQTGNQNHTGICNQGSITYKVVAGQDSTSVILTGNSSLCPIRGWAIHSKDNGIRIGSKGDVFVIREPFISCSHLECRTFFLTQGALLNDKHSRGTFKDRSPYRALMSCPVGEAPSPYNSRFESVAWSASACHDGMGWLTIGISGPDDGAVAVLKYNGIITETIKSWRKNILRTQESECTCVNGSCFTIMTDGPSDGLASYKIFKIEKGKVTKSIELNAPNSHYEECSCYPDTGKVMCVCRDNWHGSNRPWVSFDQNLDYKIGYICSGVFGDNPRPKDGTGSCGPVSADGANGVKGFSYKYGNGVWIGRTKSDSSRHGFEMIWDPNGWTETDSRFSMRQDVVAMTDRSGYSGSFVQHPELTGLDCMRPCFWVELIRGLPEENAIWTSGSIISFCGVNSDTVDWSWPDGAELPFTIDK

Work on `CCC(CC)[C@H](NC(C)=O)[C@@H]1[C@H](O)[C@@H](C(=O)O)C[C@H]1NC(=N)N` [PERAMIVIR ANHYDROUS] yielded a pIC50 of 10.00.

From ChEMBL document CHEMBL3596116, “Conformational analysis of peramivir reveals critical differences between free and enzyme-bound states” (Medchemcomm, 2014)
